Data published in patent US8742123B2, “HIV integrase inhibitors from pyridoxine” (TaiMed Biologics, Inc., priority 2008, dated 2014).

The compounds below were run on wild type NL-4.3 (assay: multi-cycle infection assay in MT-4 cells (MTT cytoprotection)). Conditions: Human immunodeficiency virus 1, MT4, 144 h; MT-4 cells, wild type NL-4.3, 6 days, MTT; read-out: EC50 (nM) multi-cycle.
Type: cell-based, HIV-1
Method: The antiviral efficacies of the integrase inhibitor compounds of the invention were evaluated based on EC50 measures obtained from two different in vitro HIV infection assay using cultured MT-4 cells: (1) a multi-cycle infection where cells were infected with wild type NL-4.3) and (2) a single-cycle infection where the cells were infected with a luciferase-bearing, envelope defective (env-) NL-4.3 virus pseudotyped with HIV-1 env (HXBc2.
The incubation period for the multi-cycle infection assay was 6 days. Cell viability (cytoprotection) and EC50 were determined using the colorimetric MTT assay (A. J. Japour et al, Antimicrobial Agents and Chemotherapy, 37, 1095-1101, 1993 and R. Pauwels et al. Journal of Virological Methods, 20, 309-321, 1988).
`COc1ccc(COCc2cnc(C(=O)NO)c3c2COC(C)(C)O3)cc1` [Example 19, N-hydroxy-5-((4-methoxybenzyloxy)methyl)-2,2-dimethyl-4H-[1,3]dioxino[4,5-c]pyridine-8-carboxamide] gave an EC50 of 5060 nM.
With `O=C(NCc1ccc2c(c1)OCO2)c1cnc(C(=O)NO)c(O)c1CO` [Example 4, N^5-(benzo[d][1,3]dioxol-5-ylmethyl)-N2,3-dihydroxy-4-(hydroxymethyl)pyridine-2,5-dicarboxamide] the EC50 was > 10000 nM.
With `O=C(NO)c1ncc(CNCc2cc(F)cc(F)c2)c(CO)c1O` [Example 10, 5-((3,5-difluorobenzylamino)methyl)-N,3-dihydroxy-4-(hydroxymethyl)picolinamide] the EC50 was > 10000 nM.
`COCc1c(C(=O)N(C)Cc2ccc(F)cc2)cnc(C(=O)NO)c1O` [Example 12, N^5-(4-fluorobenzyl)-N2,3-dihydroxy-4-(methoxymethyl)-N^5-methylpyridine-2,5-dicarboxamide] showed an EC50 of 14000 nM.
`O=C(NO)c1ncc(COCc2ccccc2)c(CO)c1O` [Example 18, 5-(Benzyloxymethyl)-N,3-dihydroxy-4-(hydroxymethyl)picolinamide] showed an EC50 of 86 nM.
In the case of `COC(=O)N(Cc1ccc(F)cc1)Cc1cnc(C(=O)NO)c(O)c1CO` [Example 65, (4-Fluoro-benzyl)-(5-hydroxy-6-hydroxycarbamoyl-4-hydroxymethyl-pyridin-3-ylmethyl)-carbamic Acid Methyl Ester], the EC50 is reported as > 10000 nM.
Compound `O=C(NO)c1ncc(CNCc2ccc3c(c2)OCO3)c(CO)c1O` [Example 11, 5-((benzo[d][1,3]dioxol-5-ylmethylamino)methyl)-N,3-dihydroxy-4-(hydroxymethyl)picolinamide] has an EC50 of 300 nM.
Compound `O=C(NCc1ccc(F)c(F)c1)c1cnc(C(=O)NO)c(O)c1CO` [Example 20, N^5-(3,4-difluorobenzyl)-N^2,3-dihydroxy-4-(hydroxymethyl)pyridine-2,5-dicarboxamide] has an EC50 of 30 nM.
`O=C(NO)c1ncc(COc2ccc(F)cc2)c(CO)c1O` [Example 28, 5-(4-Fluoro-phenoxymethyl)-3-hydroxy-4-hydroxymethyl-pyridine-2-carboxylic Acid Hydroxyamide] gave an EC50 of 186 nM.
`O=C(NCc1ccc(F)c(Cl)c1)c1cnc(C(=O)NOCc2ccccc2)c(OCc2ccccc2)c1CO` [Example 13, N^2,3-bis(benzyloxy)-N^5-(3-chloro-4-fluorobenzyl)-4-(hydroxymethyl)pyridine-2,5-dicarboxamide] was tested, and the EC50 was > 10000 nM.
`O=C(NCc1ccc(Cl)c(Cl)c1)c1cnc(C(=O)NOCc2ccccc2)c(OCc2ccccc2)c1CO` [Example 15, N^2,3-bis(benzyloxy)-N^5-(3,4-dichlorobenzyl)-4-(hydroxymethyl)pyridine-2,5-dicarboxamide] was tested, and the EC50 was > 10000 nM.
`Cc1c(C(=O)NCc2ccc(F)c(Cl)c2)cnc(C(=O)NO)c1O` [Example 74, 3-Hydroxy-4-methyl-pyridine-2,5-dicarboxylic Acid 5-(3-chloro-4-fluoro-benzylamide)2-hydroxyamide] was tested, and the EC50 was 267 nM.
`O=C(NO)c1ncc(CN(Cc2ccccc2)c2ccc(F)cc2)c(CO)c1O` [Example 25, 5-{[Benzyl-(4-fluoro-phenyl)-amino]-methyl}-3-hydroxy-4-hydroxymethyl-pyridine-2-carboxylic Acid Hydroxyamide] showed an EC50 of 175 nM.
With `O=C(NCc1ccc(Cl)c(Cl)c1)c1cnc(C(=O)NO)c(O)c1CO` [Example 16, N^5-(3,4-dichlorobenzyl)-N^2,3-dihydroxy-4-(hydroxymethyl)pyridine-2,5-dicarboxamide] the EC50 was 700 nM.
Compound `O=C(Nc1cnc(C(=O)NO)c(O)c1CO)c1ccc(F)cc1` [Example 23, 5-(4-Fluoro-benzoylamino)-3-hydroxy-4-hydroxymethyl-pyridine-2-carboxylic Acid Hydroxyamide] has an EC50 of 6300 nM.
With `O=C(NO)c1ncc(CS(=O)(=O)Cc2ccc(F)cc2)c(CO)c1O` [Example 71, 5-(4-Fluoro-phenylmethanesulfonylmethyl)-3-hydroxy-4-hydroxymethyl-pyridine-2-carboxylic Acid Hydroxyamide] the EC50 was 4.3 nM.
`O=C(NCc1ccc(F)c(Cl)c1)c1cnc(C(=O)NO)c(O)c1CO` [Example 14, N^5-(3-chloro-4-fluorobenzyl)-N2,3-dihydroxy-4-(hydroxymethyl)pyridine-2,5-dicarboxamide] was tested, and the EC50 was 123 nM.
In the case of `COc1ccc(COCc2cnc(C(=O)NO)c(O)c2CO)cc1` [Example 17, N,3-Dihydroxy-4-(hydroxymethyl)-5-((4-methoxybenzyloxy)methyl)-picolinamide], the EC50 is reported as 2000 nM.
For `O=C(NO)c1ncc(CNc2ccc(F)cc2)c(CO)c1O` [Example 21, 5-[(4-Fluoro-phenylamino)-methyl]-3-hydroxy-4-hydroxymethyl-pyridine-2-carboxylic Acid Hydroxyamide], the EC50 was 4.3 nM.
In the case of `O=C(NO)c1ncc(CCc2ccc(F)cc2)c(CO)c1O` [Example 67, 5-[2-(4-Fluoro-phenyl)-ethyl]-3-hydroxy-4-hydroxymethyl-pyridine-2-carboxylic Acid Hydroxyamide], the EC50 is reported as 235 nM.
`O=C(NCc1cc(F)cc(F)c1)c1cnc(C(=O)NO)c(O)c1CO` [Example 8, N^5-(3,5-difluorobenzyl)-N^2,3-dihydroxy-4-(hydroxymethyl)pyridine-2,5-dicarboxamide] was tested, and the EC50 was > 10000 nM.
For `O=C(NCc1cc(F)cc(F)c1)c1cnc(C(=O)NOCc2ccccc2)c(OCc2ccccc2)c1CO` [Example 7, N^2,3-bis(benzyloxy)-N^5-(3,5-difluorobenzyl)-4-(hydroxymethyl)pyridine-2,5-dicarboxamide], the EC50 was 1500 nM.
In the case of `O=C(NO)c1ncc(CNCc2ccc(F)cc2)c(CO)c1O` [Example 9], the EC50 is reported as 1000 nM.
In the case of `O=C(Nc1ccc(F)cc1)Nc1cnc(C(=O)NO)c(O)c1CO` [Example 27, 5-[3-(4-Fluoro-phenyl)-ureido]-3-hydroxy-4-hydroxymethyl-pyridine-2-carboxylic Acid Hydroxyamide], the EC50 is reported as 1100 nM.
With `COc1ccc(CNC(=O)c2cnc(C(=O)NO)c(O)c2CO)cc1` [Example 6, N^2,3-dihydroxy-4-(hydroxymethyl)-N^5-(4-methoxybenzyl)pyridine-2,5-dicarboxamide] the EC50 was 1000 nM.
Work on `COc1ccc(CNC(=O)c2cnc(C(=O)NOCc3ccccc3)c(OCc3ccccc3)c2CO)cc1` [Example 5, N^2,3-bis(benzyloxy)-4-(hydroxymethyl)-N^5-(4-methoxybenzyl)pyridine-2,5-dicarboxamide] yielded an EC50 of 900 nM.

What follows are compounds tested against T1, recombinant HIV-1 integrase (Human immunodeficiency virus type 1 group M subtype B, UniProt P12497) (assay: integrase strand transfer assay). Conditions: compounds added after assembly, 10% DMSO, read-out: ST IC50.
T1 construct: Recombinant integrase (250 ng/well) was assembled onto the immobilized donor oligonucleotide
Type: biochemical
Method: IC50 was determined for the compounds of the inventions based on data generated in strand transfer assays. The IC50 is a measure of the ability of the compounds tested to inhibit the integration of 3′-processed oligonucleotides by recombinant HIV-1 integrase.
Strand transfer assays were performed essentially as described in Hazuda, D. J.; Felock, P.; Hastings, J. C.; Pramanik, B.; Wolfe, A. J. Virol. 1997, 71, 7005-7011). Donor DNA (1.5 pmol/well), biotinylated on the 5′ end of the strand processed by integrase, was immobilized onto streptavidin-coated microtiter plates. Recombinant integrase (250 ng/well) was assembled onto the immobilized donor oligonucleotide in reaction buffer (20 mM Hepes, pH 7.6, 5 mM B-mercaptoethanol, 50 ug/mL bovine serum albumin) containing 30 mM MnCl2. Excess enzyme was removed, and the complexes were washed extensively prior to the addition of the target DNA substrate. The target DNA (0.75 pmoles/well) substrate was labeled on each 3′ end with FITC. After strand transfer, the FITC-labeled products were detected using an anti-FITC antibody conjugated with alkaline phosphatase (Roche) and a chemiluminescent substrate (Tropix CSPD with Sapphire II enhancer, Applied Biosystems). The assay was performed in a final concentration of 10% DMSO. To specifically evaluate inhibition of strand transfer, compounds were added after assembly, just prior to the addition of the target DNA.
The results of the integrase strand transfer assay are reported as IC50 values. IC50 values were determined using a sigmoidal dose-response equation. The formula used for calculating % inhibition was: % Inhibition=[1-(sample counts/average of positive control)]*100. […] Using GraphPad Prism or ActivityBase (IDBS) software IC50 was determined using following sigmoidal dose-response equation: Y=(A+((B−A)/(1+((C/X)^D))))
Compound `O=C(NO)c1ncc(COCc2ccccc2)c(CO)c1O` [Example 18, 5-(Benzyloxymethyl)-N,3-dihydroxy-4-(hydroxymethyl)picolinamide] has an IC50 of 88 nM.
`O=C(NCc1ccc(F)c(Cl)c1)c1cnc(C(=O)NO)c(O)c1CO` [Example 14, N^5-(3-chloro-4-fluorobenzyl)-N2,3-dihydroxy-4-(hydroxymethyl)pyridine-2,5-dicarboxamide] gave an IC50 of 27 nM.

What follows are compounds tested on HIV-1 isolate 91US005 (assay: acute infection assay in PHA-stimulated PBMCs, supernatant RT activity). Conditions: Human immunodeficiency virus 1, PBMC, 144 h, HIV-1 isolate 91US005, 6 day incubation.
Type: cell-based
Method: (§1) Acute infection assays using fresh human phytohemagglutinin (PHA)-stimulated peripheral blood mononuclear cells (PBMCs) were carried out. PBMCs were stimulated with IL-2 and infected with one of two wild-type drug-sensitive clinical HIV-1 isolates. The strains HIV-1 used for the infections, 91US005 (primary R5 strain of HIV-1) and 94US33931N, are both Group M, Subtype B viruses. Antiviral activity was determined as a reduction in supernatent reverse transcriptase (RT) activity after a 6 day incubation.
Compound `Cc1cn([C@H]2C[C@H](N=[N+]=[N-])[C@@H](CO)O2)c(=O)[nH]c1=O` [Retrovir (AZT), 3-Azido-3-deoxythymine (Zidovudine), reference compound] has an EC50 of 6 nM.

The compounds below were run on HIV-1 isolate 94US33931N in the same assay as above. Conditions: Human immunodeficiency virus 1, PBMC, 144 h, 6 day incubation.
Type: cell-based
Method: as §1
With `Cc1cn([C@H]2C[C@H](N=[N+]=[N-])[C@@H](CO)O2)c(=O)[nH]c1=O` [Retrovir (AZT), 3-Azido-3-deoxythymine (Zidovudine), reference compound] the EC50 was 3 nM.
